Experiment in all cases: Bliss interaction score (quartile over a dose matrix) (fitness difference); higher = more antagonism (negative = synergy)
For assay [1], the system named is S. aureus Newman. The gist of the method:
(§1)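 Values were capped at 1 after dividing OD595 at stationary-phase entry by the plate's robust no-drug mean. This ratio is fitness, and single-drug fitness was inferred from the combination data. The Bliss score is observed minus product-expected fitness, given as quartiles over technical, biological and donor/recipient replicates.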

The subject of assay [2] is S. pneumoniae D39V. The gist of the method: as §1
The subject of assay [3] is S. aureus DSM 20231. The method in brief:
as §1

Assay [4] relates to B. subtilis 168. The gist of the method: as §1

In the supplement of paper PMC10627819 one finds Bliss interaction score data, which are given here for 7 compounds.
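Further: first quartile when negative (synergy) and third quartile when positive (antagonism).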

`CC1(C)S[C@@H]2[C@H](NC(=O)[C@H](N)c3ccc(O)cc3)C(=O)N2[C@H]1C(=O)O` [Amoxicillin] + C1=CC(=CC(=C1)Cl)NN=C(C#N)C#N [CCCP]: the Bliss interaction score in assay [1] is -0.0504; in assay [2] it was -0.0978; in assay [3] it was -0.0295; in assay [4], 0.115.

With `CC1(C)S[C@@H]2[C@H](NC(=O)[C@H](N)c3ccc(O)cc3)C(=O)N2[C@H]1C(=O)O` [Amoxicillin] + CC1(C)S[C@@H]2[C@H](NC(=O)Cc3ccccc3)C(=O)N2[C@H]1C(=O)O [PenicillinG], the Bliss interaction score in assay [1] is 0.0595; in assay [2], -0.0781; in assay [3], -0.0644; in assay [4], -0.186.

On to `CC1(C)S[C@@H]2[C@H](NC(=O)[C@H](N)c3ccc(O)cc3)C(=O)N2[C@H]1C(=O)O` [Amoxicillin] + CC(=O)O[C@H]1C[C@@]2(C)[C@@H](C[C@@H](O)[C@H]3[C@@]4(C)CC[C@@H](O)[C@@H](C)[C@@H]4CC[C@@]32C)/C1=C(\CCC=C(C)C)C(=O)O [Fusidic acid], for which the Bliss interaction score in assay [1] was -0.0375; in assay [2], 0.143; in assay [3] it was 0.0361; in assay [4] it was 0.0608.

For `CC1(C)S[C@@H]2[C@H](NC(=O)[C@H](N)c3ccc(O)cc3)C(=O)N2[C@H]1C(=O)O` [Amoxicillin] + CCP(CC)CC.CC(=O)OC[C@@H]1[C@H]([C@@H]([C@H]([C@@H](O1)[S-])OC(=O)C)OC(=O)C)OC(=O)C.[Au+] [Auranofin], the Bliss interaction score is -0.0817 in assay [1], 0.178 in assay [2], 0.0373 in assay [3] and -0.0508 in assay [4].

Take `CC1(C)S[C@@H]2[C@H](NC(=O)[C@H](N)c3ccc(O)cc3)C(=O)N2[C@H]1C(=O)O` [Amoxicillin] + CC[C@H]1OC(=O)[C@H](C)C(=O)[C@H](C)[C@@H](O[C@@H]2O[C@H](C)C[C@H](N(C)C)[C@H]2O)[C@](C)(OC)C[C@@H](C)C(=O)[C@H](C)[C@H]2N(CCCCn3cnc(-c4cccnc4)c3)C(=O)O[C@]12C [Telithromycin]: the Bliss interaction score in assay [1] is -0.0609; in assay [2], 0.0336; in assay [3] it was -0.0292; in assay [4], -0.0851.

For the compound `CC1(C)S[C@@H]2[C@H](NC(=O)[C@H](N)c3ccc(O)cc3)C(=O)N2[C@H]1C(=O)O` [Amoxicillin] + CC[C@H]1OC(=O)[C@H](C)[C@@H](O[C@H]2C[C@@](C)(OC)[C@@H](O)[C@H](C)O2)[C@H](C)[C@@H](O[C@@H]2O[C@H](C)C[C@H](N(C)C)[C@H]2O)[C@](C)(O)C[C@@H](C)C(=O)[C@H](C)[C@@H](O)[C@]1(C)O [Erythromycin], the Bliss interaction score was -0.0553 in assay [1], 0.0883 in assay [2], -0.023 in assay [3] and 0.0751 in assay [4].

For `CC1(C)S[C@@H]2[C@H](NC(=O)[C@H](N)c3ccc(O)cc3)C(=O)N2[C@H]1C(=O)O` [Amoxicillin] + CN(C)[C@@H]1C(O)=C(C(N)=O)C(=O)[C@@]2(O)C(O)=C3C(=O)c4c(O)ccc(Cl)c4[C@@](C)(O)[C@H]3C[C@@H]12 [Clortetracycline], the Bliss interaction score was -0.0669 in assay [1], 0.168 in assay [2], 0.0294 in assay [3] and 0.164 in assay [4].
